We go through 8 compounds from patent US5017723A, “Substituted ethylamines, their preparation process, their use as medicine and their synthesising agents” (Jouveinal S.A., priority 1990, dated 1991).

In experiment [1] the test system is convulsion induced by picrotoxine in mice. Briefly: Protection against picrotoxine-induced convulsion (suppression of the tonic extension phase). It counts as in vivo, male Swiss mice. The following applies: Mus musculus; for responders at 50 mg/kg: 0.5 h, read-out: i.p.: % prot. (percentage of protected animals), 50 mg/kg i.p., picrotoxine 24 mg/kg i.p. 30 min later; for responders at 50 mg/kg / responders at 100 mg/kg: * p<0.05, ** p<0.01, *** p<0.001; for responders at 100 mg/kg: 1 h, read-out: p.o.: % prot. (percentage of protected animals), 100 mg/kg p.o., picrotoxine 24 mg/kg i.p. 60 min later. From the text: The psychotropic properties of the compounds have been determined by the protection of the induced convulsion by picrotoxine for mice, which is achieved by the method derived from that of Krall et al., "Epilepsia", 1978, 19, p. 409-428.
The administration of picrotoxine caused a convulsive crisis in the animal characterised by a myoclonic extension syndrome followed by the extension of the limbs causing the animal to die. Certain substances, particularly those active on the complex GABA/benzodiazepines/Cl-ionophore makes it possible to protect the animals from this convulsive crisis.
In practice the study is carried out on batches of 10 male "Swiss" mice weighing approximately 20 g, which are administered with the product to be studied in aqueous solution either by intraperitoneal route (i.p.) at the rate of 50 mg/kg and in a volume of 0.2 ml of solution per animal, or by oral route (p.o) in a volume of 2.0 ml of solution per animal.
An injection of a solution of picrotoxine at the rate of 24 mg/kg in a volume of 0.2 ml per animal is then administered by interperitoneal route, either 30 minutes after administering the product by interperitoneal route or 60 minutes after administering the product by oral route. The dose of the product injected causing a clonic crisis, which results in untreated animals dying. The suppression of the extension tonic phase in the animals treated under the conditions of the test is observed. The results are expressed:
either in percentages of protected animals of this phase to the reaction of 50 mg/kg of the compound of the study administered by i.p. route or 100 mg/kg by p.o route,
or in DE50 for each of these routes, which is the efficient dosage of the test compound expressed in mg/kg protecting 50% of the animals of this extension phase. The significant value of the results being generally indicated in the following manner:
* Significant result at p<0.05
** Significant result at p<0.01
*** Significant highly significant at p<0.001.

The target in experiment [2] is opiated mu receptor (Cavia porcellus, UniProt A0ACM8Q262). Format: binding, guinea pig. Conditions: inhibition of 50% of radioligand bonds; read-out: CI50 affinity mu rec. The protocol:
(§1) The analysis is carried out in accordance with the technique described by F. Roman et al. in J. Pharm. Pharmcol. 1987, 39, p. 404-407 which consists of analysing the displacement of specific radioactive ligands of the opiated mu, delta and kappa sub receptors by the action of the test products on the membranous receptors of a guinea pig.

Experiment [3] concerns the target T1, opiated delta receptor (Cavia porcellus, UniProt A0A286XTF2).
T1 construct: membranous receptors of a guinea pig; from tissue
Nature of the experiment: Displacement of specific radioactive ligands, opiated delta receptor. It counts as binding, guinea pig. Conditions: inhibition of 50% of radioligand bonds; read-out: CI50 affinity delta rec. As for the experimental part:
as §1

Experiment [4] concerns the target T2, opiated kappa receptor (Cavia porcellus, UniProt P41144).
T2 construct: membranous receptors of a guinea pig; from tissue
Nature of the experiment: Displacement of specific radioactive ligands, opiated kappa receptor. It counts as binding, guinea pig. The following applies: inhibition of 50% of radioligand bonds; read-out: CI50 affinity kappa rec. The protocol: as §1

Experiment [5] has as its system bladder of the rat. Nature of the experiment: Transvesical cystomanometry on wide awake rat (urological activity). It counts as in vivo, female rat. The following applies: for activity on the urinary tract compared to the reference compounds (in words): compared to Dicyclomine and Baclofen; for change in vivo at 5 mg/kg / change in vivo at 1 mg/kg: Rattus norvegicus, iv; for change in vivo at 5 mg/kg: 5,0 mg/kg i.v.; for change in vivo at 1 mg/kg: 1,0 mg/kg i.v. The protocol:
Studies by a similar method of operation, the compounds of the invention (I.A) which show a mu and kappa affinity also have an activity on certain functional parameters of the bladder of the rat which justifies their interest in the treatment of dysfunctions in the urinary tract.
The study carried out consists of transvesical cystomanometry on a wide awake rat. The following was measured during the storage and emission phases of urine under continuous intervesical perfusion of sterile physiological serum:
the "threshold pressure", which is the intervesical pressure immediately preceding the contraction phase of the detrusor
the volume of each urinary emission.
The technique used in the female rat consisted of preparing the animals 48 hours before the actual experiment by effecting the implantation of two catheters in the apex of the bladder and one catheter in the left-hand jugular vein under anaesthetic, with the external end of these catheters being protected and held by a sticking plaster corset.
The animals were placed in suitable cages at the time of the test, which were equipped so as to collect and measure the urine. For each animal one vesical catheter was connected to a pressure sensor, the other to a perfusor which supplied 0.2 ml/min. of sterile physiological serum continuously.
The intravesical pressure was measured continuously during the perfusion and it was possible to observe:
a filling phase of the bladder during which the pressure increased progressively,
a sudden rising phase of this pressure during the contraction of the detrusor: the "threshold" pressure which is the pressure observed just before the pressure of the contraction phase. This threshold pressure was raised in the same way as the urinary volume at each urination.
The study consisted of observing the changes in these parameters by the action of the products (IA) which were administered in solution by intravenous route by means of the catheter placed in the left jugular vein.
Dicyclomine and Baclofen which have been considered for the treatment of hyperactive bladders (Drugs of Today, Vol. 24, no. 5, 1988, p. 337-348) were also used in this test in the form of comparison products.

In experiment [6] the test system is opiated mu receptor. Format: binding, guinea pig. Conditions: opiated receptors, compared with morphine. As for the experimental part:
as §1

The mark [7] stands for this setting: read-out: % variation pressure threshold.

Read-outs that look alike come from different tables or passages of the source.

T1 sequence (A0A286XTF2 1-366): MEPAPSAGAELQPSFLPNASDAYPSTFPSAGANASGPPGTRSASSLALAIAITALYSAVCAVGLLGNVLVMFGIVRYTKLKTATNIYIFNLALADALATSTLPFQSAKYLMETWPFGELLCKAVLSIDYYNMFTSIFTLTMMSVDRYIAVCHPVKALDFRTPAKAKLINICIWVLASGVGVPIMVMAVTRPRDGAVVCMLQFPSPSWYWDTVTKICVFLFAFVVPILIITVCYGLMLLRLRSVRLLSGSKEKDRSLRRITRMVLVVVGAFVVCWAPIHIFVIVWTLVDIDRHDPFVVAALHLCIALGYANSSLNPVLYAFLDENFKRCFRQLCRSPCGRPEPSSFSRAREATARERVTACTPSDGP
Sequence of opiated mu receptor (Cavia porcellus, UniProt A0ACM8Q262) (A0ACM8Q262 1-400): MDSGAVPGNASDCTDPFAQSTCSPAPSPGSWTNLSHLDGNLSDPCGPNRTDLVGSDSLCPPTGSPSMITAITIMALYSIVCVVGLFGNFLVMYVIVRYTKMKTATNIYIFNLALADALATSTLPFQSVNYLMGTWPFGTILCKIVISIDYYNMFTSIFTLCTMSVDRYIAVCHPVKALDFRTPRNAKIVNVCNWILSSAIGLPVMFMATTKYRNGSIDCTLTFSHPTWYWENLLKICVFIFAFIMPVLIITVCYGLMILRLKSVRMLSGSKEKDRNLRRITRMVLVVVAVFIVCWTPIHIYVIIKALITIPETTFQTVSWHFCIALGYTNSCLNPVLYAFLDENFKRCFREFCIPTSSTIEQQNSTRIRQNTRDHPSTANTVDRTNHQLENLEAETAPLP
T2 sequence (P41144 whole entry): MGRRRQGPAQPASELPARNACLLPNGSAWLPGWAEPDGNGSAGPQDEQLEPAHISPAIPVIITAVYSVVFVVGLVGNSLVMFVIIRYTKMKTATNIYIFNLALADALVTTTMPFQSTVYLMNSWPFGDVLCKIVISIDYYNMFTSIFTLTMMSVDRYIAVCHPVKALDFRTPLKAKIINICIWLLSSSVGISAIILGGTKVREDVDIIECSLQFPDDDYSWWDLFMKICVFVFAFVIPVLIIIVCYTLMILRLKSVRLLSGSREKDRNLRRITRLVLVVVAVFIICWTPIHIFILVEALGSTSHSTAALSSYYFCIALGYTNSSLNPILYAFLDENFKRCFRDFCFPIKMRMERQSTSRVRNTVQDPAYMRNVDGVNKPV

With `CCC(CC=Cc1ccccc1)(c1ccc(Cl)cc1)N(C)C` (centres unmarked) [Example 31, a-cinnamyl-N,N-dimethyl-a-ethyl-p.chlorobenzylamine], the responders at 50 mg/kg in experiment [1] (ip) was 100%. Also, in experiment [1] (po), the responders at 100 mg/kg was found to be 50%. For the same compound, the IC50 in experiment [2] was 80 nM; in experiment [3], 1340 nM; in experiment [4], 210 nM. Further, the “activity on the urinary tract compared to the reference compounds (in words)” value in experiment [5] is given as “important activity”.

With `CCC(CC=Cc1ccc(Cl)c(Cl)c1)(NC)c1ccc(OC)cc1` (centres unmarked) [Example 25, a-(3',4'-dichloro)cinnamyl-a-ethyl-N-methyl-p.methoxybenzylamine], in experiment [1] (po), the responders at 100 mg/kg came to 50%. Further, the IC50 in experiment [2] stood at 56 nM; in experiment [3], 1590 nM; in experiment [4] it was 875 nM. In addition, the values for the change in vivo at 5 mg/kg in experiment [5] (setting [7]) and in experiment [5] (read-out: % variation volume) were 85% and 67%, respectively.

For `CCC(CC=Cc1ccc(Cl)c(Cl)c1)(c1ccc(Cl)cc1)N(C)C` (centres unmarked) [Example 43, a-(3',4' dichloro) cinnamyl-N,N-dimethyl-a-ethyl-p.chlorobenzylamine], the IC50 in experiment [2] came out at 16 nM; in experiment [3], 434 nM; in experiment [4], 197 nM. For the same compound, the “affinity with the receptors compared with morphine (in words)” value in experiment [6] was “same order of intensity as the reference products”. The change in vivo at 1 mg/kg in experiment [5] (setting [7]) amounted to 109%; in experiment [5] (read-out: % variation volume) it was 91%. In addition, the “activity on the urinary tract compared to the reference compounds (in words)” value in experiment [5] is listed as “important activity”.

With `CCC(CC=Cc1ccc(Cl)c(Cl)c1)(c1ccc(OC)cc1)N(C)C` (centres unmarked) [Example 46, a-(3',4'-dichloro)cinnamyl-N,N-dimethyl-a-ethyl-p.metoxybenzylamine], the ED50 was determined as 29.8 mg/kg in experiment [1] (ip, read-out: i.p.: DE50) and 35.4 mg/kg in experiment [1] (po, read-out: p.o.: DE50). Moreover, the IC50 was 12 nM in experiment [2], 260 nM in experiment [3] and 235 nM in experiment [4]. In addition, in experiment [6], the “affinity with the receptors compared with morphine (in words)” value is reported as “same order of intensity as the reference products”. Moreover, the change in vivo at 1 mg/kg in experiment [5] (setting [7]) was determined as 111%; in experiment [5] (read-out: % variation volume), 44%. The “activity on the urinary tract compared to the reference compounds (in words)” value in experiment [5] was “important activity”.

`CCC(CC=Cc1ccc(Cl)c(Cl)c1)(c1ccccc1)N(C)C` (centres unmarked) [Example 36, a-(3',4'-dichloro)cinnamyl-N,N-dimethyl-a-ethyl-benzylamine]: in experiment [1] (po), the responders at 100 mg/kg is 100%. In addition, the IC50 in experiment [2] was 90 nM; in experiment [3] it was 680 nM; in experiment [4], 220 nM. The change in vivo at 1 mg/kg is 125% in experiment [5] (setting [7]) and 36% in experiment [5] (read-out: % variation volume). Also, the “activity on the urinary tract compared to the reference compounds (in words)” value in experiment [5] is listed as “important activity”.

Regarding `CCC(CC=Cc1ccccc1)(c1ccc(OC)cc1)N(C)C` (centres unmarked) [Example 35, a-cinnamyl-N,N-dimethyl-a-ethyl-p.methoxybenzylamine], in experiment [1] (ip), the responders at 50 mg/kg was found to be 90%. Besides, the ED50 in experiment [1] (po, read-out: p.o.: DE50) was 40.3 mg/kg. In addition, the values for the IC50 in experiment [2], in experiment [3] and in experiment [4] were 60 nM, 1280 nM and 290 nM, respectively. In addition, the change in vivo at 1 mg/kg in experiment [5] (setting [7]) was found to be 200%; in experiment [5] (read-out: % variation volume), 39%. In experiment [5], the “activity on the urinary tract compared to the reference compounds (in words)” value is reported as “important activity”.

For `CCC(CC=Cc1ccc(Cl)c(Cl)c1)(c1ccc(C)cc1)N(C)C` (centres unmarked) [Example 44, a-(3',4'-dichloro) cinnamyl-N,N-dimethyl-a-ethyl-p.methylbenzylamine], the ED50 in experiment [1] (ip, read-out: i.p.: DE50) was determined as 21.4 mg/kg; in experiment [1] (po, read-out: p.o.: DE50) it was 23.9 mg/kg. Further, the IC50 in experiment [2] came to 4 nM; in experiment [3], 223 nM; in experiment [4] it was 110 nM. In addition, the “affinity with the receptors compared with morphine (in words)” value in experiment [6] is on record as “same order of intensity as the reference products”. Also, the “activity on the urinary tract compared to the reference compounds (in words)” value in experiment [5] is recorded as “important activity”.

Take `CCC(CC=Cc1ccccc1)(NC)c1ccc(Cl)cc1` (centres unmarked) [Example 19, a-cinnamyl-a-ethyl-N-methyl-p.chlorobenzylamine]: the responders at 50 mg/kg in experiment [1] (ip) was found to be 70%. Further, the IC50 was found to be 200 nM in experiment [2], 3490 nM in experiment [3] and 264 nM in experiment [4]. Also, the change in vivo at 5 mg/kg came out at 354% in experiment [5] (setting [7]) and 54% in experiment [5] (read-out: % variation volume).
